Consider eleven compounds from ChEMBL document CHEMBL1201862, “PubChem BioAssay data set” (2004).

“And” between values parts separate entries of the source, which are not always exact repeats. Equal entries are not always repeated.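 Values below derive from 48-hour exposures of cells grown in 96-well plates, with endpoints linearly interpolated between the two concentrations bracketing the appropriate inhibition level. The concentration for 50% growth inhibition is given as GI50.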 The source made the active and inactive calls. Rule as the data show it: active = GI50 up to about 1.1 µM and inactive = higher.

Test systems include SNB-19; U-251; OVCAR-5; RPMI-8226; Hs-578T; PC-3; HOP-62; DU-145; BT-549; MDA-MB-435; EKVX; SW-620; MOLT-4; UACC-257; SNB-75; OVCAR-3; K562; NCI-H226; SK-MEL-2; SF-539.
What all share (test): DTP human tumour cell line panel, 48 h

The GI50 is the concentration giving 50% growth inhibition. Regarding `CCOC(=O)c1c(-c2ccc(O)c(OC)c2)c(C#N)c(=S)n(C2OC(COC(C)=O)C(OC(C)=O)C(OC(C)=O)C2OC(C)=O)c1-c1ccccc1` (centres undefined), the GI50 in the assay with SNB-19 was > 100 µM (inactive); in the assay on U-251, > 100 µM (inactive); with OVCAR-5 it was > 100 µM (inactive); in the assay with RPMI-8226, 72.9 µM (inactive); in the assay on Hs-578T, > 100 µM (inactive); with PC-3, 43.8 µM (inactive) and 31.4 µM (inactive). Further, the GI50 in the assay on HOP-62 was 61.4 µM (inactive); in the assay with DU-145, 38.5 µM (inactive) and 35.2 µM (inactive); in the assay with BT-549, 57.7 µM (inactive) and 32.6 µM (inactive); in the assay on MDA-MB-435 it was 56.2 µM (inactive) and 71 µM (inactive); in the assay with EKVX, 96.8 µM (inactive) and 75.5 µM (inactive); in the assay on SW-620 it was > 100 µM (inactive). Further, the GI50 in the assay on MOLT-4 is 48.9 µM (inactive) and 31.9 µM (inactive); in the assay with UACC-257 it was > 100 µM (inactive) and 62.2 µM (inactive).

On to `COc1ccc(NCc2cccc3c(=O)c4ccc(Cl)cc4oc23)cc1`, for which the GI50 in the assay on U-251, with OVCAR-5, with RPMI-8226, with SNB-75, in the assay on OVCAR-3 and in the assay on PC-3 was > 100 µM (inactive) each time. Moreover, the GI50 with HOP-62, with K562, in the assay on BT-549, with MDA-MB-435, with EKVX and in the assay with NCI-H226 was > 100 µM (inactive) each time. Besides, the GI50 in the assay with SW-620, with SK-MEL-2, with SF-539, in the assay with MOLT-4 and with UACC-257 was > 100 µM (inactive) each time.

`CC(=O)NC1C(OCc2ccccc2)OC(CO)C(O)C1OCC(=O)NC(C)C(=O)NC(CCC(=O)Nc1ccc2c(c1)CN1C(=O)c3ccccc3C1=N2)C(N)=O` (centres undefined): the GI50 in the assay on SNB-19, in the assay on U-251, in the assay with OVCAR-5, in the assay with RPMI-8226, in the assay with Hs-578T and in the assay on SNB-75 was > 100 µM (inactive) throughout. In addition, the GI50 in the assay with OVCAR-3, in the assay with PC-3, in the assay on HOP-62, in the assay on K562, with DU-145 and in the assay with BT-549 was > 100 µM (inactive) throughout. Moreover, the GI50 with MDA-MB-435 is > 100 µM (inactive); with EKVX it was > 100 µM (inactive); in the assay with SW-620, > 100 µM (inactive); in the assay on SK-MEL-2, > 100 µM (inactive); in the assay with SF-539, > 100 µM (inactive); with MOLT-4 it was 89.1 µM (inactive). In the assay with UACC-257, the GI50 is > 100 µM (inactive).

Consider `O=S(=O)(/N=c1/[nH]c2ccccc2n1S(=O)(=O)c1ccccc1)c1ccccc1`, for which the GI50 in the assay with SNB-19 is 32.7 µM (inactive); in the assay with U-251, 22.1 µM (inactive); in the assay on OVCAR-5, 64.9 µM (inactive); with RPMI-8226, 35.4 µM (inactive); in the assay with Hs-578T, 88.1 µM (inactive); in the assay with SNB-75 it was 88.3 µM (inactive). For the same compound, the GI50 in the assay with OVCAR-3 is 27.9 µM (inactive); with PC-3 it was 36.8 µM (inactive); in the assay on HOP-62, 56.5 µM (inactive); in the assay on K562, 32.7 µM (inactive); in the assay with DU-145, 57.7 µM (inactive); with BT-549 it was 41.2 µM (inactive). Moreover, the GI50 is 36.8 µM (inactive) in the assay with MDA-MB-435; 65.6 µM (inactive) in the assay on EKVX; 56.2 µM (inactive) with NCI-H226; 30.4 µM (inactive) with SW-620; 35.4 µM (inactive) in the assay on SK-MEL-2; 29.2 µM (inactive) with MOLT-4. For the same compound, the GI50 in the assay on UACC-257 is 45 µM (inactive).

Regarding `O=C(Nc1ccc(F)cc1)c1cc2ccc(O)cc2o/c1=N\c1cccc(F)c1`, the GI50 in the assay on U-251 is 28.7 µM (inactive); with OVCAR-5, > 100 µM (inactive); in the assay with RPMI-8226, 14.8 µM (inactive); with OVCAR-3 it was 38.3 µM (inactive); in the assay on PC-3 it was 33 µM (inactive); in the assay with HOP-62 it was 42.5 µM (inactive). For the same compound, the GI50 with K562 was 22 µM (inactive); in the assay on DU-145, 28.9 µM (inactive); in the assay with BT-549, 30.6 µM (inactive); in the assay with MDA-MB-435, 31.8 µM (inactive); with EKVX, 22.9 µM (inactive); in the assay on SW-620 it was 41.5 µM (inactive). In addition, the GI50 in the assay with SK-MEL-2 was 42.2 µM (inactive); with SF-539, 52.7 µM (inactive); in the assay on MOLT-4, 27.9 µM (inactive); with UACC-257 it was 33.5 µM (inactive).

Regarding `C=CCNC(=S)N/C=C(\C(=O)OCC)C(=O)C(=O)OCC`, the GI50 with SNB-19, in the assay on U-251, with OVCAR-5, in the assay on RPMI-8226, with Hs-578T and in the assay with SNB-75 was > 100 µM (inactive) in each case. The GI50 in the assay with OVCAR-3, in the assay with PC-3, with HOP-62, with K562, in the assay with DU-145 and in the assay with MDA-MB-435 was > 100 µM (inactive) throughout. For the same compound, the GI50 with EKVX, in the assay on NCI-H226, in the assay with SW-620, in the assay with SK-MEL-2, in the assay on SF-539 and with MOLT-4 was > 100 µM (inactive) in each case. The GI50 in the assay with UACC-257 was > 100 µM (inactive).

For the compound `COc1ccc(C2Oc3c(cccc3OC)C=C2[N+](=O)[O-])cc1OC` (centres undefined), the GI50 was 17.3 µM (inactive) in the assay on SNB-19; 3.97 µM (inactive) in the assay on U-251; 13.8 µM (inactive) with OVCAR-5; 32.3 µM (inactive) with RPMI-8226; 6.25 µM (inactive) in the assay on Hs-578T; 7.21 µM (inactive) with SNB-75. For the same compound, the GI50 is 11.9 µM (inactive) in the assay with OVCAR-3; 4.08 µM (inactive) in the assay with PC-3; 21.2 µM (inactive) with HOP-62; 2.58 µM (inactive) in the assay on K562; 11.7 µM (inactive) in the assay on DU-145; 5.47 µM (inactive) with BT-549. The GI50 is 2.16 µM (inactive) with MDA-MB-435; 45.2 µM (inactive) with EKVX; 18.6 µM (inactive) with NCI-H226; 2.85 µM (inactive) in the assay on MOLT-4; 3.71 µM (inactive) in the assay with UACC-257.

As for `C[C@]12CC[C@@H]3c4ccc(OS(N)(=O)=O)cc4CC[C@H]3[C@@H]1CCC2=O` [EMATE], the GI50 in the assay on SNB-19 was 73.3 µM (inactive); in the assay with U-251 it was 46.2 µM (inactive); in the assay on OVCAR-5, > 100 µM (inactive); in the assay on RPMI-8226 it was 31.1 µM (inactive); in the assay on Hs-578T, 10.5 µM (inactive); in the assay on SNB-75, 42.4 µM (inactive). The GI50 with OVCAR-3 is 64 µM (inactive); with HOP-62, 55.2 µM (inactive); in the assay on K562 it was 24.7 µM (inactive); in the assay with DU-145, 42.7 µM (inactive); in the assay with BT-549, 45 µM (inactive); with MDA-MB-435, 39.4 µM (inactive). Moreover, the GI50 in the assay with EKVX was 5.07 µM (inactive); in the assay on NCI-H226, 49.3 µM (inactive); in the assay on SW-620, 44.6 µM (inactive); with SK-MEL-2, 37.5 µM (inactive); in the assay on SF-539 it was 52.2 µM (inactive); with UACC-257, 32.4 µM (inactive).

For `CCOC(=O)Nc1cc2c(c(N)n1)N=C(c1ccccc1)CN2`, the GI50 with SNB-19 is < 0.01 µM (active); in the assay with U-251 it was < 0.01 µM (active); in the assay with OVCAR-5, < 0.01 µM (active); in the assay with RPMI-8226, < 0.01 µM (active); in the assay with Hs-578T it was < 0.0001 µM (active); in the assay with SNB-75 it was < 0.01 µM (active). The GI50 in the assay with OVCAR-3, with PC-3, with HOP-62, in the assay with K562, with DU-145 and in the assay with BT-549 was < 0.01 µM (active) throughout. Further, the GI50 in the assay with MDA-MB-435 was < 0.01 µM (active); in the assay on EKVX, < 0.0187 µM (active); in the assay with SW-620 it was < 0.01 µM (active); in the assay on SF-539, < 0.01 µM (active); with MOLT-4, < 0.01 µM (active); with UACC-257 it was 12.8 µM (inactive).

With `COc1ccc(/C=C/c2cc(OC)cc(=O)o2)cc1` [YANGONIN], the GI50 is 50.4 µM (inactive) with SNB-19; 27.1 µM (inactive) with U-251; > 100 µM (inactive) with OVCAR-5; > 100 µM (inactive) in the assay with RPMI-8226; 35.5 µM (inactive) with Hs-578T; 20 µM (inactive) in the assay on SNB-75. Further, the GI50 in the assay on OVCAR-3 was > 100 µM (inactive); with PC-3 it was > 100 µM (inactive); in the assay on HOP-62, 40 µM (inactive); in the assay with K562 it was 63.1 µM (inactive); in the assay with DU-145, 95.9 µM (inactive); in the assay on MDA-MB-435, > 100 µM (inactive). For the same compound, the GI50 in the assay on EKVX was > 100 µM (inactive); in the assay with NCI-H226 it was > 100 µM (inactive); with SW-620 it was > 100 µM (inactive); with SK-MEL-2, 72.1 µM (inactive); in the assay on SF-539 it was 10.2 µM (inactive); with MOLT-4 it was > 100 µM (inactive). Besides, the GI50 in the assay on UACC-257 was > 100 µM (inactive).

Regarding `CCN(CC)c1ccc2cc(-c3nnc(-c4ccccc4O)o3)c(=O)oc2c1`, the GI50 with SNB-19 is 9.68 µM (inactive); in the assay with U-251, 7.71 µM (inactive); with OVCAR-5 it was 16.2 µM (inactive); in the assay on RPMI-8226 it was 14.6 µM (inactive); with Hs-578T, 20.1 µM (inactive); in the assay with OVCAR-3 it was 5.97 µM (inactive). For the same compound, the GI50 is 10.3 µM (inactive) with PC-3; 5.51 µM (inactive) in the assay on HOP-62; 5.96 µM (inactive) in the assay with K562; 10.3 µM (inactive) in the assay on DU-145; 5.75 µM (inactive) in the assay on BT-549; 12.9 µM (inactive) in the assay on MDA-MB-435. Further, the GI50 is 17 µM (inactive) in the assay with EKVX; 5.75 µM (inactive) in the assay with SW-620; 14.5 µM (inactive) in the assay with SK-MEL-2; 8.18 µM (inactive) with SF-539; 3.03 µM (inactive) in the assay on MOLT-4; 14.3 µM (inactive) with UACC-257.
